The RepoRT retention time repository (doi:10.1038/s41586-021-03707-9)

Experiments:
[1] = RP, Waters ACQUITY UPLC HSS C18, 100 × 2.1 mm, 1.7 µm, 40 °C, 0.35 mL/min, estimated dead time 0.63 min; A: water + 0.1% formic acid; B: methanol + 0.1% formic acid; gradient (min/%B) 0/0.5 4/70 4.5/98 5.4/98; details: stereoisomer not certain
[2] = Waters ACQUITY UPLC BEH C18, 100 × 2.1 mm, 1.7 µm, 40 °C, 0.28 mL/min, estimated dead time 0.63 min; A: water + 6.5 mM ammonium hydroxide; B: methanol + 6.5 mM ammonium hydroxide; gradient (min/%B) 0/0.5 4/70 4.5/98 5.4/98; details: stereoisomer not certain

| LC retention time [1] | LC retention time [2] | SMILES |
| --- | --- | --- |
| 3.9 min | 2.73 min | CC(=O)NC(CC(C)C)C(=O)O (stereo not given) |
| 0.77 min | 0.821 min | CN(C)CC(=O)O |
| 0.799 min | 0.804 min | CC(O)CC(=O)O (stereo not given) |
| 2.9 min | 2.16 min | CC=C(C)C(=O)NCC(=O)O |
| 2.01 min | 3.81 min | CCN(CC)CCNC(=O)c1ccc(N)cc1 |
| 2.33 min | 3.02 min | Cn1cnc2c(ncn2C2OC(CO)C(O)C2O)c1=N (stereo not given) |
| 3.04 min | 1.67 min | O=C(O)c1cc(=O)c2cccc(O)c2[nH]1 |
| 1.13 min | 0.78 min | CC(=O)NCC(=O)O |
| 1.85 min | 1.87 min | O=c1ccn(C2CC(O)C(CO)O2)c(=O)[nH]1 (stereo not given) |
| 3.93 min | 2.59 min | O=C(O)C(O)Cc1c[nH]c2ccccc12 (stereo not given) |
| 4.4 min | 4.61 min | CCOC(=O)c1ccc(N)cc1 |
| 3.1 min | 0.892 min | O=C(O)c1ccc(O)cc1 |
| 1.25 min | 0.796 min | Nc1cc(C(=O)O)ccc1O |
| 0.783 min | 1 min | Nc1ccnc(=O)[nH]1 |
| 1.97 min | 2.54 min | Cc1ncc(CO)c(C(=O)O)c1O |
| 4.92 min | 3.66 min | O=C(O)CCCc1c[nH]c2ccccc12 |
| 1.86 min | 2.48 min | Nc1ncnc2c1ncn2C1OC(CO)C(O)C1O (stereo not given) |

| LC retention time [1] | LC retention time [2] | SMILES |
| --- | --- | --- |
| 3.22 min | 2.96 min | NCCCCC(NC(CCc1ccccc1)C(=O)O)C(=O)N1CCCC1C(=O)O (stereo not given) |
| 1.11 min | 0.91 min | NC(N)=NCCCC(=O)O |
| 1.29 min | 1.1 min | NC(Cc1ccc(O)c(O)c1)C(=O)O (stereo not given) |
| 1.91 min | 0.854 min | CC(=O)NC1C(O)OC(CO)C(O)C1OC(C)C(=O)O (stereo not given) |
| 2.95 min | 1.73 min | NC(CC(=O)O)C(=O)NC(Cc1ccccc1)C(=O)O (stereo not given) |
| 1.79 min | 1.68 min | Nc1ccccc1S(=O)(=O)O |
| 4.22 min | 4.36 min | OCCc1c[nH]c2ccccc12 |
| 3.56 min | 3.67 min | COC(=O)C(Cc1ccccc1)NC(=O)C(N)CC(=O)O (stereo not given) |
| 3.99 min | 2.99 min | CC(=O)NC(Cc1ccccc1)C(=O)O (stereo not given) |
| 1.92 min | 1.9 min | O=c1[nH]cnc2c1ncn2C1OC(CO)C(O)C1O (stereo not given) |
| 2.35 min | 3.57 min | CC(C)NCC(O)COc1ccc(CC(N)=O)cc1 (stereo not given) |
| 3.33 min | 0.869 min | COc1cc(C(=O)O)ccc1O |
| 2.57 min | 0.924 min | Nc1c(O)cccc1C(=O)O |
| 1.95 min | 0.923 min | CC(=O)NCCCC(=O)O |
| 3.5 min | 3.61 min | Cc1cc2nc3c(=O)[nH]c(=O)nc-3n(CC(O)C(O)C(O)CO)c2cc1C (stereo not given) |
| 3.56 min | 2.74 min | Cc1ccccc1C(=O)NCC(=O)O |

Further lines, the compound ahead of its results:

| SMILES | LC retention time [1] | LC retention time [2] |
| --- | --- | --- |
| COc1cc(C(O)CN)ccc1O (stereo not given) | 1.16 min | 1.88 min |
| O=C(O)CNC(=O)c1cccnc1 | 1.74 min | 1.67 min |
| OCC1OC(OC2C(CO)OC(OC3C(CO)OC(O)C(O)C3O)C(O)C2O)C(O)C(O)C1O (stereo not given) | 0.847 min | 0.851 min |
| NCCc1ccc(O)cc1 | 1.7 min | 2.22 min |
| Nc1nc2c(ncn2C2OC(CO)C(O)C2O)c(=O)[nH]1 (stereo not given) | 1.92 min | 1.98 min |
| CN(C)CCc1ccc(O)cc1 | 1.82 min | 3.89 min |
| CNCCc1ccc(O)cc1 | 1.79 min | 2.43 min |
| CSCCC(NC=O)C(=O)O (stereo not given) | 2.78 min | 1.75 min |
| CCCCCCCC(=O)NCC(=O)O | 5.22 min | 4.67 min |
| Cn1c(=O)[nH]c2ncn(C)c2c1=O | 2.8 min | 2.68 min |
| O=C(O)C1CCCCN1 (stereo not given) | 1.15 min | 1.14 min |
| O=c1ccc2cc(OC3OC(CO)C(O)C(O)C3O)c(O)cc2o1 (stereo not given) | 2.78 min | 2.17 min |
| OCC1OC(OCC2OC(O)C(O)C(O)C2O)C(O)C(O)C1O (stereo not given) | 0.804 min | 0.831 min |
| NC(=O)NCCCCC(N)C(=O)O (stereo not given) | 0.857 min | 0.853 min |
| Cn1c(=O)c2[nH]c(=O)[nH]c2n(C)c1=O | 2.47 min | 1.92 min |
| OC1C2COC(O2)C(O)C1O (stereo not given) | 0.85 min | 0.853 min |
| CC1=CC(=O)NS(=O)(=O)O1 | 2.12 min | 1.78 min |
| CCC1(C)CC(=O)NC1=O (stereo not given) | 3.39 min | 3.44 min |
| OCC1OCC(O)C(O)C1O (stereo not given) | 0.864 min | 0.865 min |
| c1ncc2[nH]cnc2n1 | 1.69 min | 1.85 min |
| O=C(O)Cc1ccccc1 | 2.87 min | 1.75 min |
| Nc1ncnc2c1ncn2C1OC(CO)C2OP(=O)(O)OC21 (stereo not given) | 1.68 min | 2.11 min |
